The results in this text go back to patent publication US20130224296A1, “Drug Formulations Using Water Soluble Antioxidants” (Bristol-Myers Squibb Company, priority 2010, published 2013).

The nature of data set [1]: Level of formaldehyde and formic acid in antioxidant containing Opadry films (GC). Conditions: Opadry II white film, sealed vials 60° C. for 5 days; 0.2% w/v BHT or 2% w/v ascorbic acid or propyl gallate in suspension. The class given is physicochemical. Here is the method:
Five hundred μL of the coating suspension was dispensed in 5 mL scintillation vials. Open vials were kept overnight at 40° C. to form a film. The vials were rubber stoppered and sealed. The sealed vials were kept at 60° C. for 5 days and analyzed for formaldehyde and formic acid levels by a GC method. […] These concentrations are on the higher end of the recommended use concentrations for each antioxidant and were used to test their maximum efficacy.

The nature of another data set: physchem. Conditions: water.

Converted amounts (≈) assume the structure as drawn.

What is called solubility is the concentration that dissolves in the medium under given conditions.

With `O=C1O[C@H]([C@@H](O)CO)C(O)=C1O` [Ascorbic acid], in data set [1], the Level of formaldehyde entry was “Not detected” and the “Level of formic acid” value turned out to be 184 ppm.

Consider `Cc1cc(C(C)(C)C)c(O)c(C(C)(C)C)c1` [Butylated hydroxy toluene (BHT), Butylated hydroxy toluene], for which, in the data set “physchem”, the solubility lay in the range of 0.6 to 1.1 µg/mL (≈ 0.00272 to 0.00499 mM). In addition, in data set [1], the Level of formaldehyde is reported as 95 ppm and the “Level of formic acid” value is 1159 ppm.

As to `CCCOC(=O)c1cc(O)c(O)c(O)c1` [Propyl gallate], in “physchem”, the concentration in solution (solubility) was 3330 µg/mL (≈ 15.7 mM). In data set [1], the Level of formaldehyde result is given as “Not detected” and the “Level of formic acid” value amounted to 60 ppm.
